In ChEMBL document CHEMBL1150544, “C-3-N-acyl analogs of 9(R)-dihydrotaxol: synthesis and structure activity relationships” (Bioorg Med Chem Lett, 1994):
Values after ≈ are worked out from the molar mass of the structure shown.

Legend:
[1] = test system: A549; assay: In vitro cytotoxicity against A549-human lung carcinoma cells.; assay type: functional, cell-based
[2] = Antitumor activity relative to taxol.; assay type: functional
[3] = test system: B16-F10; assay: In vitro cytotoxicity against B16F10-mouse melanoma cells.; assay type: functional, cell-based
[4] = test system: HT-29; assay: In vitro cytotoxicity against HT29-human colon adenocarcinoma cells.; assay type: functional, cell-based
[5] = test system: P388; assay: In vitro cytotoxicity against P388-mouse leukemia cells.; assay type: functional, cell-based

| SMILES | IC50 [1] [µg/mL] | Ratio [2] | IC50 [3] [µg/mL] | IC50 [4] [µg/mL] | IC50 [5] [µg/mL] |
| --- | --- | --- | --- | --- | --- |
| CC(=O)O[C@@H]1C2=C(C)[C@@H](OC(=O)[C@H](O)[C@@H](NC(=O)c3ccc(C)cc3)c3ccccc3)C[C@@](O)([C@@H](OC(=O)c3ccccc3)[C@@H]3[C@]4(OC(C)=O)CO[C@@H]4C[C@H](O)[C@@]3(C)[C@H]1O)C2(C)C | 0.043 (≈ 0.0494 µM) | 0.75 | 0.025 (≈ 0.0287 µM) | 0.012 (≈ 0.0138 µM) | 0.063 (≈ 0.0724 µM) |
| CC(=O)O[C@@H]1C2=C(C)[C@@H](OC(=O)[C@H](O)[C@@H](NC(=O)NC(C)(C)C)c3ccccc3)C[C@@](O)([C@@H](OC(=O)c3ccccc3)[C@@H]3[C@]4(OC(C)=O)CO[C@@H]4C[C@H](O)[C@@]3(C)[C@H]1O)C2(C)C | 0.014 (≈ 0.0165 µM) | 1.06 | 0.0046 (≈ 0.00541 µM) | 0.0056 (≈ 0.00658 µM) | 0.017 (≈ 0.02 µM) |
| CC(=O)O[C@@H]1C2=C(C)[C@@H](OC(=O)[C@H](O)[C@@H](NC(=O)OCc3ccccc3)c3ccccc3)C[C@@](O)([C@@H](OC(=O)c3ccccc3)[C@@H]3[C@]4(OC(C)=O)CO[C@@H]4C[C@H](O)[C@@]3(C)[C@H]1O)C2(C)C | 0.031 (≈ 0.035 µM) |  | 0.044 (≈ 0.0497 µM) | 0.012 (≈ 0.0135 µM) | 0.057 (≈ 0.0643 µM) |
| CCOC(=O)N[C@@H](c1ccccc1)[C@@H](O)C(=O)O[C@H]1C[C@@]2(O)[C@@H](OC(=O)c3ccccc3)[C@@H]3[C@]4(OC(C)=O)CO[C@@H]4C[C@H](O)[C@@]3(C)[C@@H](O)[C@H](OC(C)=O)C(=C1C)C2(C)C | 0.0057 (≈ 0.00692 µM) | 0.82 | 0.018 (≈ 0.0218 µM) | 0.005 (≈ 0.00607 µM) | 0.043 (≈ 0.0522 µM) |
| CC(=O)O[C@@H]1C2=C(C)[C@@H](OC(=O)[C@H](O)[C@@H](NC(=O)c3ccc(OCc4ccccc4)cc3)c3ccccc3)C[C@@](O)([C@@H](OC(=O)c3ccccc3)[C@@H]3[C@]4(OC(C)=O)CO[C@@H]4C[C@H](O)[C@@]3(C)[C@H]1O)C2(C)C | 0.019 (≈ 0.0197 µM) | 0.76 | 0.025 (≈ 0.026 µM) | 0.008 (≈ 0.00832 µM) | 0.053 (≈ 0.0551 µM) |
| CC(=O)O[C@@H]1C2=C(C)[C@@H](OC(=O)[C@H](O)[C@@H](NC(=O)c3ccc(O)cc3)c3ccccc3)C[C@@](O)([C@@H](OC(=O)c3ccccc3)[C@@H]3[C@]4(OC(C)=O)CO[C@@H]4C[C@H](O)[C@@]3(C)[C@H]1O)C2(C)C | > 0.1 | 1.07 | > 0.1 | 0.067 (≈ 0.0768 µM) | > 0.1 |
| CC(=O)O[C@@H]1C2=C(C)[C@@H](OC(=O)[C@H](O)[C@@H](NC(=O)CC(C)(C)C)c3ccccc3)C[C@@](O)([C@@H](OC(=O)c3ccccc3)[C@@H]3[C@]4(OC(C)=O)CO[C@@H]4C[C@H](O)[C@@]3(C)[C@H]1O)C2(C)C | 0.027 (≈ 0.0318 µM) | 1.03 | 0.0056 (≈ 0.00659 µM) | 0.009 (≈ 0.0106 µM) | 0.052 (≈ 0.0612 µM) |
| CC(=O)O[C@@H]1C2=C(C)[C@@H](OC(=O)[C@H](O)[C@@H](NC(=O)OCC(C)C)c3ccccc3)C[C@@](O)([C@@H](OC(=O)c3ccccc3)[C@@H]3[C@]4(OC(C)=O)CO[C@@H]4C[C@H](O)[C@@]3(C)[C@H]1O)C2(C)C | 0.0043 (≈ 0.00505 µM) | 1.03 | 0.0069 (≈ 0.0081 µM) | 0.0023 (≈ 0.0027 µM) | 0.028 (≈ 0.0329 µM) |
| CCC(C)(C)OC(=O)N[C@@H](c1ccccc1)[C@@H](O)C(=O)O[C@H]1C[C@@]2(O)[C@@H](OC(=O)c3ccccc3)[C@@H]3[C@]4(OC(C)=O)CO[C@@H]4C[C@H](O)[C@@]3(C)[C@@H](O)[C@H](OC(C)=O)C(=C1C)C2(C)C | 0.001 (≈ 0.00115 µM) | 0.73 | 0.0003 (≈ 0.000346 µM) | 0.00067 (≈ 0.000774 µM) | 0.0046 (≈ 0.00531 µM) |
| CC(=O)O[C@H]1C(=O)[C@@]2(C)[C@H]([C@H](OC(=O)c3ccccc3)[C@]3(O)C[C@H](OC(=O)[C@H](O)[C@@H](NC(=O)c4ccccc4)c4ccccc4)C(C)=C1C3(C)C)[C@]1(OC(C)=O)CO[C@@H]1C[C@@H]2O [PACLITAXEL] |  |  | 0.0041 (≈ 0.0048 µM) | 0.0024 (≈ 0.00281 µM) | 0.046 (≈ 0.0539 µM) |
| CC(=O)O[C@@H]1C2=C(C)[C@@H](OC(=O)[C@H](O)[C@@H](NC(=O)OC(C)C)c3ccccc3)C[C@@](O)([C@@H](OC(=O)c3ccccc3)[C@@H]3[C@]4(OC(C)=O)CO[C@@H]4C[C@H](O)[C@@]3(C)[C@H]1O)C2(C)C | 0.0012 (≈ 0.00143 µM) | 0.75 | 0.0022 (≈ 0.00263 µM) | 0.0008 (≈ 0.000955 µM) | 0.0092 (≈ 0.011 µM) |
| CC(=O)O[C@@H]1C2=C(C)[C@@H](OC(=O)[C@H](O)[C@@H](NC(=O)OC34CC5CC(CC(C5)C3)C4)c3ccccc3)C[C@@](O)([C@@H](OC(=O)c3ccccc3)[C@@H]3[C@]4(OC(C)=O)CO[C@@H]4C[C@H](O)[C@@]3(C)[C@H]1O)C2(C)C | 0.0043 (≈ 0.00462 µM) | 1.54 | 0.0048 (≈ 0.00516 µM) | 0.0028 (≈ 0.00301 µM) | 0.01 (≈ 0.0108 µM) |
| CC(=O)N[C@@H](c1ccccc1)[C@@H](O)C(=O)O[C@H]1C[C@@]2(O)[C@@H](OC(=O)c3ccccc3)[C@@H]3[C@]4(OC(C)=O)CO[C@@H]4C[C@H](O)[C@@]3(C)[C@@H](O)[C@H](OC(C)=O)C(=C1C)C2(C)C | 2.1 (≈ 2.65 µM) | 3.17 | 1.1 (≈ 1.39 µM) | 0.27 (≈ 0.34 µM) | 2.02 (≈ 2.54 µM) |
| CC(=O)O[C@@H]1C2=C(C)[C@@H](OC(=O)[C@H](O)[C@@H](NC(=O)c3ccco3)c3ccccc3)C[C@@](O)([C@@H](OC(=O)c3ccccc3)[C@@H]3[C@]4(OC(C)=O)CO[C@@H]4C[C@H](O)[C@@]3(C)[C@H]1O)C2(C)C | 0.0072 (≈ 0.00851 µM) | 0.73 | 0.012 (≈ 0.0142 µM) | 0.0041 (≈ 0.00485 µM) | 0.034 (≈ 0.0402 µM) |
| CC(=O)O[C@@H]1C2=C(C)[C@@H](OC(=O)[C@H](O)[C@@H](NC(=O)OC(C)(C)C)c3ccccc3)C[C@@](O)([C@@H](OC(=O)c3ccccc3)[C@@H]3[C@]4(OC(C)=O)CO[C@@H]4C[C@H](O)[C@@]3(C)[C@H]1O)C2(C)C | 0.0003 (≈ 0.000352 µM) | 0.87 |  |  |  |
| CC(=O)O[C@@H]1C2=C(C)[C@@H](OC(=O)[C@H](O)[C@@H](NC(=O)C(C)(C)C)c3ccccc3)C[C@@](O)([C@@H](OC(=O)c3ccccc3)[C@@H]3[C@]4(OC(C)=O)CO[C@@H]4C[C@H](O)[C@@]3(C)[C@H]1O)C2(C)C | 0.11 (≈ 0.132 µM) | 2.36 | 0.035 (≈ 0.0419 µM) | < 0.01 | 0.083 (≈ 0.0993 µM) |
| CC(=O)O[C@@H]1C2=C(C)[C@@H](OC(=O)[C@H](O)[C@@H](NC(=O)OCC(C)(C)C)c3ccccc3)C[C@@](O)([C@@H](OC(=O)c3ccccc3)[C@@H]3[C@]4(OC(C)=O)CO[C@@H]4C[C@H](O)[C@@]3(C)[C@H]1O)C2(C)C | 0.00065 (≈ 0.000751 µM) | 0.82 | 0.0074 (≈ 0.00855 µM) | 0.0015 (≈ 0.00173 µM) | 0.019 (≈ 0.0219 µM) |
